Earlier results in patent US11266615B2, “Pyrimethamine-based pharmaceutical compositions and methods for fabricating thereof” (Harrow IP, LLC, priority 2018, dated 2022).

Conditions: background statement

solubility in water: poor
SMILES: CCc1nc(N)nc(N)c1-c1ccc(Cl)cc1 [pyrimethamine, 5-(4-chlorophenyl)-6-ethyl-pyrimidine-2,4-diamine]
